According to ChEMBL document CHEMBL1201862, “PubChem BioAssay data set” (2004):
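Assay format: 96-well plates, 48-hour exposure. The concentration for 50% growth inhibition is given as GI50.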 Active and inactive are the calls of the source. Rule as the data show it: active = GI50 up to about 1.1 µM and inactive = higher. Residues, ends and D or L forms follow the SMILES beside them. *: point of attachment. Boc = CC(C)(C)OC(=O)*

Legend:
Assay in all cases: NCI tumour cell line growth inhibition, 48 h
BT-549 = test system: BT-549
DU-145 = test system: DU-145
Hs-578T = test system: Hs-578T
MDA-MB-435 = test system: MDA-MB-435

SMILES | GI50 (BT-549) | GI50 (DU-145) | GI50 (Hs-578T) | GI50 (MDA-MB-435)
Nc1nc(Cl)cc(NCC2(CO)CC(c3ccccc3)C2)n1 (configuration not stated) | 29.3 µM (inactive) | > 100 µM (inactive) | 19.2 µM (inactive) | 29.9 µM (inactive)
CC(=O)c1cc2sc3ccccc3c2[nH]1 |  | > 100 µM (inactive) |  | > 100 µM (inactive)
COc1ccc(C(=O)/C=C/S/C(=N/C#N)SC)cc1 |  | 21.7 µM (inactive) | 30.9 µM (inactive) | 21.5 µM (inactive)
O=c1ccn(C2OC(COC3CCCCO3)C(OC3CCCCO3)C2OC2CCCCO2)c(=O)n1-c1ccccc1 (configuration not stated) |  | > 100 µM (inactive) | > 100 µM (inactive) | > 100 µM (inactive)
CCCCNC(=O)OCCN=C1c2ccccc2C(Br)C(Br)c2ccccc21 (configuration not stated) |  | 41.3 µM (inactive) | 36.1 µM (inactive) | 21 µM (inactive)
O=C(Nc1ccn(C2CC(O)C(COC(c3ccccc3)(c3ccccc3)c3ccccc3)O2)c(=O)n1)c1ccccc1 (configuration not stated) |  | 5.61 µM (inactive) | 2.31 µM (inactive) | 2.56 µM (inactive)
O=C(CCC(=O)OCC1OC(O)(CC2OC(CO)C(O)C(O)C2O)C(O)C1O)OCc1ccccc1 (configuration not stated) | > 100 µM (inactive) | > 100 µM (inactive) | > 100 µM (inactive) | > 100 µM (inactive)
COC(=O)C1(OC(=O)Sc2ccccc2)CCN(C)CC1 | 1.5 µM (inactive) | 23.8 µM (inactive) | 21.1 µM (inactive) | 13.8 µM (inactive)
CC(C)=CC(O)C(C(O)CCC1(C)OCCO1)S(=O)(=O)c1ccccc1 (configuration not stated) | > 100 µM (inactive) |  |  | > 100 µM (inactive)
COc1ccc(/C=C2/SC(c3ccccc3)N(NC(=O)CCCCCCCCC(=O)NN3C(=O)/C(=C\c4ccc(OC)c(OC)c4)SC3c3ccccc3)C2=O)cc1OC (configuration not stated) | > 100 µM (inactive) | > 100 µM (inactive) |  | 38.5 µM (inactive)
OCC1COc2cc(Cl)c(Cl)cc2O1 (configuration not stated) |  | > 10 µM (inactive) | > 10 µM (inactive) | > 10 µM (inactive)
CC(C)(C)OC(=O)NC(Cc1ccccc1)C(=O)N[C@H]1c2ccsc2/C(=N/O)[C@H]1O (some centres not stated) | > 100 µM (inactive) | > 100 µM (inactive) |  | > 100 µM (inactive)
COC(=O)c1cc2c3c(cc(N(C)C)c2[nH]1)N(C(=O)c1cc2cc(OC)c(OC)c(OC)c2[nH]1)CC3CCl (configuration not stated) | 0.018 µM (active) | < 0.0025 µM (active) |  | 0.00298 µM (active)
Cc1ccc2nc(NC(=O)/C(Cc3nc4ccc(Cl)cc4nc3O)=N\NC(C)(C)C)sc2c1 | > 100 µM (inactive) | > 100 µM (inactive) | 18.2 µM (inactive) | > 100 µM (inactive)
N#CC(=S)Nc1ccc(F)cc1 | 32.6 µM (inactive) | 86.7 µM (inactive) |  | 38 µM (inactive)
CCOC(=O)C(NC(=O)c1cccc(Cl)c1)(Nc1ccc(S(=O)(=O)Nc2cc(C)on2)cc1)C(F)(F)F (configuration not stated) |  | > 100 µM (inactive) | > 100 µM (inactive) | > 100 µM (inactive)
Cc1c(N2C(=O)/C(=C/c3ccc(Cl)cc3)N=C2c2ccccc2)c(=O)n(-c2ccccc2)n1C | 47.4 µM (inactive) | 38.2 µM (inactive) |  | 19.5 µM (inactive)
CCCCCCCCCCCCOCCOCCOCCOCCOCCOCC(=O)NC(Cc1ccccc1)C(=O)Oc1ccc([N+](=O)[O-])cc1 (configuration not stated) | 25.5 µM (inactive) |  | 41.2 µM (inactive) | 30.6 µM (inactive)
COc1ccc(-c2nc(-c3cnccn3)n(Cc3ccccc3)n2)cc1 | > 100 µM (inactive) | > 100 µM (inactive) |  | > 100 µM (inactive)
COc1ccc(CC2(O)C3CC4CCC2C4C3)cc1 (configuration not stated) | 36.6 µM (inactive) |  | 85.3 µM (inactive) | > 100 µM (inactive)
CC(NC(=O)C(NC(=O)OC(C)(C)C)C(C)C)C(=O)N1CCCC1C(=O)NCC(=O)NC(C(=O)NCC(=O)O)C(C)C (configuration not stated) (Boc-VAPGVG-OH; configuration not given here) |  | > 100 µM (inactive) |  | > 100 µM (inactive)
CCOc1cc(C=O)ccc1O [ETHYL VANILLIN] |  | > 100 µM (inactive) | > 100 µM (inactive) | > 100 µM (inactive)
